Where a SMILES comes first, the peptide text is derived from it. [ ]: non-standard residue; d: D form.
Legend:
[1] = biological target: T1, human FOXP3 (FOXP3-6His) (Homo sapiens, UniProt Q9BZS1); experiment: Peptide binding to FOXP3 by surface plasmon resonance (SPR); details: peptides 1-20 μM; ratio to p60 (SEQ ID NO: 1)
T1 construct: 6xHis (C); made in house; host or cells: E. coli BL21 (DE3)
T1 sequence (Q9BZS1 1-431): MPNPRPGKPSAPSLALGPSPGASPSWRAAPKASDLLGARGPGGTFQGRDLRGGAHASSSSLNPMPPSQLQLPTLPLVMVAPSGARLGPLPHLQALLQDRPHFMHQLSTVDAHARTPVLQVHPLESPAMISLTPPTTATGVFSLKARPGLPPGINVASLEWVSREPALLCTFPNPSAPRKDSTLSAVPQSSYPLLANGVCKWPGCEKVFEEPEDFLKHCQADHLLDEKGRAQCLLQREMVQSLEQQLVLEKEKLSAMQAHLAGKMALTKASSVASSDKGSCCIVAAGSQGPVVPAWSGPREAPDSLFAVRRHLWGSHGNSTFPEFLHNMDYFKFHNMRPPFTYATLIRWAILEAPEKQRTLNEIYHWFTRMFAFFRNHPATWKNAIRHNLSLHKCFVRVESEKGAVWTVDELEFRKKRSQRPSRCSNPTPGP
How it was run: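 C-terminally 6His-tagged human FOXP3, expressed in E. coli BL21(DE3) and Ni-affinity purified, was amine-coupled to a GLM chip (ProteOn XPR36). Peptides at 1–20 μM injected in triplicate in PBS, 0.005% Tween 20, pH 7.4, at 30 μl/min, with interspot reference. Binding given as ratio to reference peptide p60.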

[2] = biological target: T2, FOXP3/Runx1 heterodimerization (Homo sapiens, UniProt Q9BZS1); experiment: FOXP3/Runx1 heterodimerization inhibition (Alphascreen); type: biochemical; details: for inhibition at 2.5 µM: read-out: Foxp3-Runx1 Inhibition % inhibition (2.5 μM)
T2 construct: made in house; host or cells: E. coli BL21 (DE3)
T2 sequence (Q9BZS1 1-431): T1 sequence (Q9BZS1 1-431)
Description: Plasmid pET20b FOXP3-His was generated to produce the human FOXP3 tagged with 6 histidines at the C terminus of the protein. Briefly, plasmid pDEST15-FOXP3 (provided by Dr. Casal, Madrid, Spain) was used as template to amplify FOXP3 by PCR using the primers Upper FOXP3 Ndel catatgcccaaccccaggc (SEQ ID NO: 55) and Lower FOXP3 […] (SEQ ID NO: 56). The resulting fragment was subcloned in pET20b at Ndel and NotI sites. pET45b His-Runx1 was obtained by PCR of activated human CD4 T cells obtained from healthy volunteers (after the signature of an informed consent) using the primers Upper Runx1 atgcgtatccccgtagatg (SEQ ID NO: 57) and Lower Runx1 […] (SEQ ID NO: 58) and the fragment was cloned in pcDNA3.1. Then, pET45b and pcDNA3.1-Runx1 were digested with BamHI and NotI and ligated to obtain pET45b-Runx1. Plasmids were used to transform BL21 cells (DE3; Novagen, Schwalbach, Germany) for the expression of the recombinant protein. The transformed BL21 cells were grown in LB medium at 37° C. (1 liter of final culture medium) (with ampicilin 0.1 mg/ml). Once the OD of the culture was between 0.5 and 1.0, IPTG (0.4 mM, final concentration) was added. Bacteria were then cultured overnight in agitation and centrifuged for 10 min at 8000 rpm. Cell pellet was then resuspended in 4 ml Tris-HCl 0.1 M and frozen at −80° C. Cell pellet was then thawed and incubated with lisozyme (25 KU) and a protease inhibitor cocktail for 15 min at 30° C. before cell lysis induced with a French-press. The resultant pool was then centrifuged during 20 min at 11.000 rpm). The recombinant protein was purified from the soluble fraction of French-press cell extracts by affinity chromatography (Histrap, Pharmacia) following manufacturer's instructions and using an FPLC platform (AKTA, Pharmacia). Plasmid pDEST15-FOXP3 encoding the fusion protein GST-FOXP3 (GST fused to the isoform A from human FOXP3 gene), was transformed into BL21 cells for the expression of the recombinant protein. GST-FOXP3 protein was purified from the soluble fraction of cell extracts obtained, as described above, by affinity chromatography (GSTrap; Amersham, Piscataway, N.J.) using a fast protein liquid chromatography platform (AKTA; Amersham) following manufacturer's instructions. The eluted proteins were desalted using Hitrap desalting columns (Pharmacia) and analyzed by SDS-PAGE using Coomassie blue (Bio-Safe Coomassie reagent; Bio-Rad, Hercules, Calif.) and by Western blot.
It has been described that dimerization of FOXP3 is required for its function as a transcriptional regulator. Moreover, interaction between FOXP3 and the transcription factor Runx1, is crucially required for normal hematopoiesis including thymic T-cell development, but also for Treg suppressor activity (Reviewed in Lozano et al, Front Oncol. 2013, 3:294). Both activities are mediated by the intermediate region of Foxp3, which is the area of interaction between P60 and Foxp3. Thus, we studied the effect of P60 and their mutants on the FOXP3/Runx1 heterodimerization, as well as FOXP3/FOXP3 homodimerization by Alphascreen technology according to the manufacturer's instructions (Perkin Elmer, Benelux). AlphaScreen™ is a bead-based technology that is designed to measure the proximity of donor and acceptor beads conjugated to biomolecules of interest.
To measure Foxp3-Runx1 interactions, Foxp3-GST and […] proteins were used.
Recombinant Runx1 expressed in E. Coli with a hexa-histidine tag (obtained as disclosed in section (1) above) was captured by nickel chelate acceptor beads following manufacturer's instructions, whereas the recombinant FOXP3 expressed with a GST tag was captured by glutathione donor beads (Perkin Elmer) following manufacturer's instructions. His-tagged Runx1 (46 nM final concentration) was incubated with 100 nM GST-FOXP3 and the peptides to be tested (added at different concentrations from 1 to 100 μM) for 1 h at room temperature. […]

CSCC[C@H](NC(=O)[C@H](C)NC(=O)[C@H](Cc1ccccc1)NC(=O)[C@H](Cc1ccccc1)NC(=O)[C@@H]1CCCN1C(=O)[C@H](Cc1c[nH]c2ccccc12)NC(=O)[C@H](CCSC)NC(=O)[C@H](CCCCN)NC(=O)[C@H](CCCNC(=N)N)NC(=O)[C@H](Cc1ccccc1)NC(=O)[C@H](CO)NC(=O)[C@H](CCC(N)=O)NC(=O)[C@H](Cc1ccccc1)NC(=O)[C@@H](CC(=O)O)NC(=O)[C@@H](N)CCCNC(=N)N)C(=O)O [compound 3] (H-R[dD]FQSFRKMWPFFAM-OH)
Binding to Foxp3 Ratio binding Peptide/p60 (fold change) [1]: 2.8 fold change

CSCC[C@H](NC(=O)[C@H](C)NC(=O)[C@H](Cc1ccccc1)NC(=O)[C@H](Cc1ccccc1)NC(=O)[C@@H]1CCCN1C(=O)[C@H](Cc1c[nH]c2ccccc12)NC(=O)[C@H](CCSC)NC(=O)[C@H](CCCCN)NC(=O)[C@H](CCCNC(=N)N)NC(=O)[C@H](Cc1ccccc1)NC(=O)[C@H](CO)NC(=O)[C@H](CCC(N)=O)NC(=O)[C@H](Cc1ccccc1)NC(=O)[C@H](C)NC(=O)[C@H](N)CCCNC(=N)N)C(=O)O [compound 46] (H-[dR]AFQSFRKMWPFFAM-OH; N-terminus and C-terminus assumed)
Binding to Foxp3 Ratio binding Peptide/p60 (fold change) [1]: 2.7 fold change | inhibition at 2.5 µM [2]: 95%

CSCC[C@H](NC(=O)[C@H](CCCCN)NC(=O)[C@H](CCCNC(=N)N)NC(=O)[C@H](Cc1ccccc1)NC(=O)[C@H](CO)NC(=O)[C@H](CCC(N)=O)NC(=O)[C@H](Cc1ccccc1)NC(=O)[C@H](C)NC(=O)[C@@H](N)CCCNC(=N)N)C(=O)N[C@@H](Cc1c[nH]c2ccccc12)C(=O)N1CCC[C@H]1C(=O)N[C@@H](Cc1ccccc1)C(=O)N[C@@H](Cc1ccccc1)C(=O)N[C@@H](C)C(=O)N[C@H](CCSC)C(=O)O [compound 47] (H-RAFQSFRKMWPFFA[dM]-OH; N-terminus and C-terminus assumed)
Binding to Foxp3 Ratio binding Peptide/p60 (fold change) [1]: 1.7 fold change | inhibition at 2.5 µM [2]: 75%

CSCC[C@H](NC(=O)[C@H](CCCCN)NC(=O)[C@H](CCCNC(=N)N)NC(=O)[C@H](Cc1ccccc1)NC(=O)[C@H](CO)NC(=O)[C@H](CCC(N)=O)NC(=O)[C@H](Cc1ccccc1)NC(=O)[C@H](C)NC(=O)[C@H](N)CCCNC(=N)N)C(=O)N[C@@H](Cc1c[nH]c2ccccc12)C(=O)N1CCC[C@H]1C(=O)N[C@@H](Cc1ccccc1)C(=O)N[C@@H](Cc1ccccc1)C(=O)N[C@@H](C)C(=O)N[C@H](CCSC)C(=O)O [compound 48] (H-[dR]AFQSFRKMWPFFA[dM]-OH; N-terminus and C-terminus assumed)
Binding to Foxp3 Ratio binding Peptide/p60 (fold change) [1]: 2.5 fold change | inhibition at 2.5 µM [2]: 70%

CSCC[C@@H]1NC(=O)[C@H](C)NC(=O)[C@H](Cc2ccccc2)NC(=O)[C@H](Cc2ccccc2)NC(=O)[C@@H]2CCCN2C(=O)[C@H](Cc2c[nH]c3ccccc23)NC(=O)[C@H](CCSC)NC(=O)[C@H](CCCCN)NC(=O)[C@H](CCCNC(=N)N)NC(=O)[C@H](Cc2ccccc2)NC(=O)[C@H](C)NC(=O)[C@H](CCC(N)=O)NC(=O)[C@H](Cc2ccccc2)NC(=O)[C@H](C)NC(=O)[C@H](CCCNC(=N)N)NC1=O [compound 50] (cyclo(RAFQAFRKMWPFFAM))
inhibition at 2.5 µM [2]: 60%

H-RDFQSFRKMWPFFAM-OH [compound 1]
Binding to Foxp3 Ratio binding Peptide/p60 (fold change) [1]: 1.0 fold change | inhibition at 100 µM ([2]; read-out: Foxp3-Runx1 Inhibition % inhibition (100 μM)): 54.5%

Reference: patent US10654896B2, “FoxP3-binding peptides and uses thereof” (FUNDACIÓN PARA LA INVESTIGACIÓN MÉDICA APLICADA, priority 2016, dated 2020)
